Here are results for two compounds from patent US20140275539A1, “STABILIZATION OF RADIOIODINATED AND ASTATINATED PHARMACEUTICALS AND IMAGING AGENTS” (priority 2013, published 2014).

Data set [1] is described as follows: DFT calculation of C—I bond dissociation energy (B3LYP/6-31G(d,p)/MIDI!, Gaussian 03). The settings on record: estimated from the DFT data, compound not covered by the calculations. As for the experimental part: Density Functional Theory (DFT) calculations performed on a variety of model structures strongly support the novelty and uniqueness of this approach. […] Calculations were performed with the Gaussian 03 suite of programs.
Table 2 summarizes results of density functional theory calculations (B3LYP/6-31G(d,p)/MIDI!, thermal and zero point energy corrected) for compounds 1, 7, and 8, showing the dissimilar impact of ortho-chlorine substitution on the strength of the C—I bond. […] Chlorine substitution results in significant C—I bond weakening compared to iodobenzene.
Table 3 depicts the results of density functional theory calculations for compounds 1, 5, and 9-14 (B3LYP/SDD for astatobenzenes, B3LYP/6-31G(d,p)/MIDI! for the iodobenzenes, and B3LYP/6-31G(d,p) for 11-14; thermal and zero point energy corrected) showing how the effect of ortho fluorine substitution falls off as the bond strength of the C—X (where X=halogen) bond increases.
Table 4 depicts results of DFT calculations (B3LYP/6-31G(d,p)/MIDI! for compounds 15-22; thermal and zero point energy corrected) showing how the effect of ortho fluorine applies to heterocyclic systems.
Table 5 depicts results of density functional theory calculations (B3LYP/6-31G(d,p)/MIDI!; thermal and zero point energy corrected) for compounds 23-34, showing how the effect of ortho fluorine substituents applies to five-membered ring heterocycles. […]

For data set [2] the following is noted: more cytotoxic than ^123I-MIBG; cited from earlier work.

In the case of `N[C@@H](Cc1cc(I)c(Oc2ccc(F)c(I)c2F)c(I)c1)C(=O)O`, the “C—I bond energy increase over the derivative in which the fluorine substituents are replaced by hydrogen atoms” value in data set [1] is recorded as “approximately 2.5 kcal/mol”.

As to `N=C(N)NCc1cccc([211At])c1` [^211At-MIBG], the “cytotoxicity relative to ^123I-MIBG” value in data set [2] is “approximately 1000 times”.
